The values below come from ChEMBL document CHEMBL1142323, “Inhibition of carbonic anhydrases with glycosyltriazole benzene sulfonamides” (J Med Chem, 2008).

By Ki is commonly meant a dissociation constant, usually derived from enzyme kinetics or from competition with a known ligand. A high value points to a looser hold on the target.

Among the targets are Carbonic anhydrase 9 (Homo sapiens, UniProt Q16790); Carbonic anhydrase 1 (Homo sapiens, UniProt P00915); Carbonic anhydrase 2 (Homo sapiens, UniProt P00918).

Carbonic anhydrase 1, sequence (P00915 whole entry): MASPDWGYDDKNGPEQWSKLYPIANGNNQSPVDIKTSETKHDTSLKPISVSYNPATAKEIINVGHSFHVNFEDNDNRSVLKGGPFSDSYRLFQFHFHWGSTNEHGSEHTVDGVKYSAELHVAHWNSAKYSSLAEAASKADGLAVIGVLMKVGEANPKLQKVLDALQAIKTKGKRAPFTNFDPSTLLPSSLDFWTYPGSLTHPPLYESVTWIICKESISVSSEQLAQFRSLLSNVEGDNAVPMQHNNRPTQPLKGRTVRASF

At Carbonic anhydrase 9, `NS(=O)(=O)c1ccc(-c2cn([C@@H]3O[C@H](CO)[C@@H](O)[C@H]3O)nn2)cc1` registered a Ki of 121 nM.

In the case of `CC(=O)OC[C@H]1O[C@@H](n2cc(-c3ccc(S(N)(=O)=O)cc3)nn2)[C@H](OC(C)=O)[C@@H](OC(C)=O)[C@@H]1OC(C)=O`, the Ki at Carbonic anhydrase 1 amounted to 4400 nM; at Carbonic anhydrase 2 it was 9.1 nM.

As for `CC(=O)N[C@@H]1[C@@H](OC(C)=O)[C@H](OC(C)=O)[C@@H](COC(C)=O)O[C@H]1n1cc(-c2ccc(S(N)(=O)=O)cc2)nn1`, the inhibition constant Ki on Carbonic anhydrase 9 worked out at 101 nM.

Take `CC(=O)OC[C@H]1O[C@@H](n2cc(-c3ccc(S(N)(=O)=O)cc3)nn2)[C@H](OC(C)=O)[C@@H](OC(C)=O)[C@H]1OC(C)=O`: the Ki on Carbonic anhydrase 1 came to 4300 nM; at Carbonic anhydrase 2, 8.7 nM; at Carbonic anhydrase 9, 110 nM.

For the compound `CC(=O)OC[C@H]1OC(n2cc(-c3ccc(S(N)(=O)=O)cc3)nn2)[C@@H](OC(C)=O)[C@@H](OC(C)=O)[C@@H]1OC(C)=O` (single isomer, unassigned), the values for the Ki at Carbonic anhydrase 1, at Carbonic anhydrase 2 and on Carbonic anhydrase 9 were 1.6 nM, 2.1 nM and 5 nM, respectively.

For `NS(=O)(=O)c1ccc(-c2cn([C@@H]3O[C@H](CO)[C@H](O)[C@H](O)[C@H]3O)nn2)cc1`, the Ki at Carbonic anhydrase 1 worked out at 9.3 nM; at Carbonic anhydrase 2, 8.8 nM; at Carbonic anhydrase 9, 120 nM.

With `NS(=O)(=O)c1ccc(-c2cn([C@@H]3O[C@H](CO)[C@@H](O)[C@H](O)[C@H]3O)nn2)cc1`, the inhibition constant (Ki) at Carbonic anhydrase 1 worked out at 9.4 nM; on Carbonic anhydrase 2, 380 nM; on Carbonic anhydrase 9, 89 nM.

In the case of `NS(=O)(=O)c1ccc(-c2cn(C3O[C@H](CO)[C@@H](O)[C@H](O)[C@@H]3O)nn2)cc1` (single isomer, unassigned), the Ki on Carbonic anhydrase 1 came to 2.8 nM; on Carbonic anhydrase 2, 7.6 nM; at Carbonic anhydrase 9 it was 5.4 nM.

The compound `NS(=O)(=O)c1ccc(-c2cn([C@@H]3O[C@H](CO)[C@@H](O[C@H]4O[C@H](CO)[C@@H](O)[C@H](O)[C@H]4O)[C@H](O)[C@H]3O)nn2)cc1` registered an inhibition constant (Ki) on Carbonic anhydrase 9 of 130 nM.

Take `CC(=O)OC[C@H]1O[C@@H](n2cc(-c3ccc(S(N)(=O)=O)cc3)nn2)[C@H](OC(C)=O)[C@@H](OC(C)=O)[C@@H]1O[C@H]1O[C@H](COC(C)=O)[C@@H](OC(C)=O)[C@H](OC(C)=O)[C@H]1OC(C)=O`: the Ki at Carbonic anhydrase 9 was determined as 120 nM.

On to `COC(=O)[C@H]1O[C@@H](n2cc(-c3ccc(S(N)(=O)=O)cc3)nn2)[C@H](OC(C)=O)[C@@H](OC(C)=O)[C@@H]1OC(C)=O`, for which affinity on Carbonic anhydrase 9 was put at a Ki of 9.9 nM.

On to `CC(=O)O[C@H]1[C@H](OC(C)=O)C(n2cc(-c3ccc(S(N)(=O)=O)cc3)nn2)OC[C@H]1OC(C)=O` (single isomer, unassigned), for which the affinity at Carbonic anhydrase 9, expressed as Ki, was 134 nM.

At Carbonic anhydrase 9, `COC(=O)[C@H]1O[C@@H](n2cc(-c3ccc(S(N)(=O)=O)cc3)nn2)[C@H](O)[C@@H](O)[C@@H]1O` returned a Ki of 8.4 nM.
